{
  "source": "patent US20240207250A1",
  "about": "“AGENT FOR PROMOTING LIPID REDUCTION” (MITSUBISHI GAS CHEMICAL COMPANY, INC., priority 2021, published 2024)",
  "assay_type_in_all_cases": "in vivo",
  "key": {"daphnids (Daphnia magna) [1]": {"tested_on": "daphnids (Daphnia magna)", "assay": "Caloric restriction equivalent amount from correlation between amount of feed and fat mass", "conditions": "calculated from fat mass (fluorescence intensity) with feed/fat mass regression line; Comparative Example 1 = 0", "excerpt": "Then, the logarithm of the amount of the feed and the fat mass (fluorescence intensity) obtained after the breeding were plotted as illustrated in FIG. 2 (n=5). When an approximate straight line was drawn on the plots, the approximate straight line was represented by the following equation, and the correlation coefficient was R=0.996. [formula] [formula] [formula] This equation of the approximate straight line can be regarded as a relational expression between the logarithm of the amount of the feed, namely, calorie intake, and the fat mass (fluorescence intensity) after the breeding."}, "daphnids (Daphnia magna) [2]": {"tested_on": "daphnids (Daphnia magna)", "assay": "Measurement of fat mass of daphnids by Nile red fluorescence (lipid reduction promotion test)", "conditions": "for Body Fat Mass vs Comparative Example 1 (%), Average: Nile red fluorescence intensity, Comparative Example 1 (no IPQ) = 100, 5 daphnids, 4 days after addition to breeding water, H-IPQ 50 μM or 200 μM, Arg-IPQ 80 mg/L, Leu-IPQ 80 mg/L, ECGC 1 mg/L, carnitine 2 mg/L; for body fat mass as compared with the control (Comparative Example 1), in words: daphnids bred 4 days with substance in breeding water", "protocol": "In the present examples, […] (scientific name: Daphnia magna) were used in a lipid reduction promotion test. As chlorella (scientific name: Chlorella vulgaris) used as a feed for the […], a product of […] Center LLC was used. Specifically, parent […] bred in a water tank at 22° C. under a day cycle of an 8/16-hour light/dark cycle. The chlorella used as the feed was supplied in an amount of 8×10^7 on Monday, Wednesday, and Friday. Breeding water held in the water tank was exchanged at a frequency of once a week. Under these breeding conditions, child […] born from the parent […] used in the following examples. 10 child […] bred in 500 mL of mineral water (at 22° C.) under a day cycle of an 8/16-hour light/dark cycle. […] 10 child […] bred in 500 mL of mineral water (at 22° C.) under a day cycle of an 8/16-hour light/dark cycle. […] 10 child […] bred in 500 mL of mineral water (at 22° C.) under a day cycle of an 8/16-hour light/dark cycle. […] 10 child […] bred in 500 mL of mineral water (at 22° C.) under a day cycle of an 8/16-hour light/dark cycle. […] 10 child […] bred in 500 mL of mineral water (at 22° C.) under a day cycle of an 8/16-hour light/dark cycle. […] 10 child […] bred in 500 mL of mineral water (at 22° C.) under a day cycle of an 8/16-hour light/dark cycle. […] The fat mass was measured in accordance with Non Patent Literature 4. […] Thereafter, the […] washed with water, and taken out. Water was added thereto in an amount of 300 μL per […], and the resultant was ground by applying ultrasonic waves for 15 minutes. The thus obtained ground liquid was centrifuged to collect a supernatant. The resultant was measured for a fluorescence intensity through 485 nm excitation/535 nm detection using a plate reader. This measurement operation was performed on 5 […]."}, "daphnids (Daphnia magna) [3]": {"tested_on": "daphnids (Daphnia magna)", "assay": "Measurement of body length of daphnids", "conditions": "for Body Length (mm), Average: daphnids bred 4 days with substance, Arg-IPQ 80 mg/L, Leu-IPQ 80 mg/L, ECGC 1 mg/L, carnitine 2 mg/L, control 2.37 mm; for body length as compared with the control (Comparative Example 1), in words: daphnids bred 4 days with substance in breeding water"}, "daphnids (Daphnia magna) [4]": {"tested_on": "daphnids (Daphnia magna)", "assay": "Evaluation of movement capability of daphnids (video analysis of moving distance)", "conditions": "for moving distance for 30 seconds, Daphnid 1: individual Daphnid 1, control 20.01 cm; for moving distance for 30 seconds, Daphnid 2: individual Daphnid 2, control 22.67 cm; for moving distance for 30 seconds, Daphnid 3: individual Daphnid 3, control 18.62 cm; for amount of exercise improved (times vs control): moving distance relative to control daphnids; for moving distance for 30 seconds, Average ± Standard Deviation: three daphnids, control 20.46 ± 2.06 cm", "protocol": "The daphnids bred under condition of no IPQ described in Comparative Example 1 (control), and the daphnids bred in the presence of H-IPQ, Arg-IPQ, and Leu-IPQ respectively described in Examples 1 to 3 were used. 20 mL of mineral water was put in each of four 100 mm-glass petri dishes, into each of which one daphnid bred in Comparative Example 1 and Examples 1 to 3 was transferred. These petri dishes were placed to be adjacent to one another, and the movement for 1 minute of the daphnids was recorded. This operation was repeated three times using different individuals. Then, Kinovea video analysis software was used to analyze a moving distance for 30 seconds of each daphnid.\nIt is noted that the daphnids were in a state of always moving in the test, which is regarded as a state of exercise with an intensity of 3 METs or more in terms of human exercise intensity."}},
  "data": [
    {"molecule": "O=C(O[C@@H]1Cc2c(O)cc(O)cc2O[C@@H]1c1cc(O)c(O)c(O)c1)c1cc(O)c(O)c(O)c1", "note": "[Comparative Example 2, Epigallocatechin Gallate, reference compound]", "values": [
      {"measurement": "Caloric Restriction Equivalent Amount (0 meaning no caloric restriction)", "setting": "daphnids (Daphnia magna) [1]", "result": "−7", "unit": "%"},
      {"measurement": "Body Fat Mass vs Comparative Example 1 (%), Average", "setting": "daphnids (Daphnia magna) [2]", "result": 102.0, "unit": "%"},
      {"measurement": "body fat mass as compared with the control (Comparative Example 1), in words", "setting": "daphnids (Daphnia magna) [2]", "result": "neither increased not reduced"},
      {"measurement": "Body Length (mm), Average", "setting": "daphnids (Daphnia magna) [3]", "result": 2.43, "unit": "mm"}
    ]},
    {"molecule": "C[N+](C)(C)CC(O)CC(=O)[O-]", "note": "(stereo not shown) [Comparative Example 3, carnitine, reference compound]", "values": [
      {"measurement": "Caloric Restriction Equivalent Amount (0 meaning no caloric restriction)", "setting": "daphnids (Daphnia magna) [1]", "result": "−231", "unit": "%"},
      {"measurement": "Body Fat Mass vs Comparative Example 1 (%), Average", "setting": "daphnids (Daphnia magna) [2]", "result": 133.8, "unit": "%"},
      {"measurement": "body fat mass as compared with the control (Comparative Example 1), in words", "setting": "daphnids (Daphnia magna) [2]", "result": "increased"},
      {"measurement": "Body Length (mm), Average", "setting": "daphnids (Daphnia magna) [3]", "result": 2.82, "unit": "mm"}
    ]},
    {"molecule": "O=C([O-])c1cc2c(=O)c3ncn4c(C(=O)[O-])cc(C(=O)[O-])c(c2[nH]1)c34.[Na+].[Na+].[Na+]", "note": "[Example 1, glycine residue IPQ trisodium]", "values": [
      {"measurement": "Caloric Restriction Equivalent Amount (0 meaning no caloric restriction)", "setting": "daphnids (Daphnia magna) [1]", "result": 73, "unit": "%"},
      {"measurement": "Body Fat Mass vs Comparative Example 1 (%), Average", "setting": "daphnids (Daphnia magna) [2]", "result": 60.3, "unit": "%"},
      {"measurement": "body fat mass as compared with the control (Comparative Example 1), in words", "setting": "daphnids (Daphnia magna) [2]", "result": "reduced"},
      {"measurement": "body length as compared with the control (Comparative Example 1), in words", "setting": "daphnids (Daphnia magna) [3]", "result": "not grown to be very large"},
      {"measurement": "moving distance for 30 seconds, Daphnid 1", "setting": "daphnids (Daphnia magna) [4]", "result": 24.23, "unit": "cm"},
      {"measurement": "moving distance for 30 seconds, Daphnid 2", "setting": "daphnids (Daphnia magna) [4]", "result": 21.43, "unit": "cm"},
      {"measurement": "moving distance for 30 seconds, Daphnid 3", "setting": "daphnids (Daphnia magna) [4]", "result": 27.85, "unit": "cm"},
      {"measurement": "amount of exercise improved (times vs control)", "setting": "daphnids (Daphnia magna) [4]", "result": "about 1.2 times"},
      {"measurement": "moving distance for 30 seconds, Average ± Standard Deviation", "setting": "daphnids (Daphnia magna) [4]", "result": "24.50 ± 3.22", "unit": "cm"}
    ]},
    {"molecule": "N=C(N)NCCCc1nc2c(=O)c3cc(C(=O)O)[nH]c3c3c(C(=O)[O-])cc(C(=O)[O-])n1c23.[Na+].[Na+]", "note": "[Example 2, Arginine Residue IPQ Disodium]", "values": [
      {"measurement": "Caloric Restriction Equivalent Amount (0 meaning no caloric restriction)", "setting": "daphnids (Daphnia magna) [1]", "result": 45, "unit": "%"},
      {"measurement": "Body Fat Mass vs Comparative Example 1 (%), Average", "setting": "daphnids (Daphnia magna) [2]", "result": 79.7, "unit": "%"},
      {"measurement": "body fat mass as compared with the control (Comparative Example 1), in words", "setting": "daphnids (Daphnia magna) [2]", "result": "reduced"},
      {"measurement": "body length as compared with the control (Comparative Example 1), in words", "setting": "daphnids (Daphnia magna) [3]", "result": "grown to be larger"},
      {"measurement": "Body Length (mm), Average", "setting": "daphnids (Daphnia magna) [3]", "result": 2.64, "unit": "mm"},
      {"measurement": "moving distance for 30 seconds, Daphnid 1", "setting": "daphnids (Daphnia magna) [4]", "result": 25.33, "unit": "cm"},
      {"measurement": "moving distance for 30 seconds, Daphnid 2", "setting": "daphnids (Daphnia magna) [4]", "result": 30.35, "unit": "cm"},
      {"measurement": "moving distance for 30 seconds, Daphnid 3", "setting": "daphnids (Daphnia magna) [4]", "result": 30.47, "unit": "cm"},
      {"measurement": "amount of exercise improved (times vs control)", "setting": "daphnids (Daphnia magna) [4]", "result": 1.4, "unit": "times"},
      {"measurement": "moving distance for 30 seconds, Average ± Standard Deviation", "setting": "daphnids (Daphnia magna) [4]", "result": "28.72 ± 2.93", "unit": "cm"}
    ]},
    {"molecule": "CC(C)Cc1nc2c(=O)c3cc(C(=O)O)[nH]c3c3c(C(=O)O)cc(C(=O)O)n1c23", "note": "[Example 3, leucine residue IPQ]", "values": [
      {"measurement": "Caloric Restriction Equivalent Amount (0 meaning no caloric restriction)", "setting": "daphnids (Daphnia magna) [1]", "result": 62, "unit": "%"},
      {"measurement": "Body Fat Mass vs Comparative Example 1 (%), Average", "setting": "daphnids (Daphnia magna) [2]", "result": 69.9, "unit": "%"},
      {"measurement": "body fat mass as compared with the control (Comparative Example 1), in words", "setting": "daphnids (Daphnia magna) [2]", "result": "reduced"},
      {"measurement": "body length as compared with the control (Comparative Example 1), in words", "setting": "daphnids (Daphnia magna) [3]", "result": "grown to be larger"},
      {"measurement": "Body Length (mm), Average", "setting": "daphnids (Daphnia magna) [3]", "result": 2.52, "unit": "mm"},
      {"measurement": "moving distance for 30 seconds, Daphnid 1", "setting": "daphnids (Daphnia magna) [4]", "result": 26.78, "unit": "cm"},
      {"measurement": "moving distance for 30 seconds, Daphnid 2", "setting": "daphnids (Daphnia magna) [4]", "result": 21.56, "unit": "cm"},
      {"measurement": "moving distance for 30 seconds, Daphnid 3", "setting": "daphnids (Daphnia magna) [4]", "result": 20.53, "unit": "cm"},
      {"measurement": "amount of exercise improved (times vs control)", "setting": "daphnids (Daphnia magna) [4]", "result": 1.1, "unit": "times"},
      {"measurement": "moving distance for 30 seconds, Average ± Standard Deviation", "setting": "daphnids (Daphnia magna) [4]", "result": "22.96 ± 3.35", "unit": "cm"}
    ]}
  ]
}
